Measurements published in patent publication US20090312316A1, “NOVEL COMPOUNDS” (priority 2006, published 2009).

Key:
[1] = system: endothelial cells; details: with respect to borrelidin; WO 01/09113; cited from earlier work
[2] = system: CAM vasculature; experiment: Chick chorioallantoic membrane (CAM) assay of anti-angiogenic activity; assay type: in vivo; details: for Ratio of inhibition of CAM vasculature at 25 ng/CAM to in vitro cancer cell inhibition at 1 uM: 25 ng/CAM versus 1 uM in cancer cell panel; for Mean blood vessel density score: angiogenesis score up to 32 (highest density), 0 = no angiogenesis, mean of ten experiments; for anti-angiogenic therapeutic index (ratio of anti-angiogenesis to general cell inhibition), in words: as compared to 1 and 6
Experimental: Fresh fertile eggs were be incubated for 3 days in a standard egg incubator at 37° C. for 3 days. On Day 3, eggs were cracked under sterile conditions and embryos were placed into 20×100 mm plastic plates and cultivated at 37° C. in an embryo incubator with a water reservoir on the bottom shelf. Air was continuously bubbled into the water reservoir using a small pump so that the humidity in the incubator was kept constant. […] Embryos were returned to the incubator after addition of test material. Control embryos received 10 μL of vehicle alone. […] The blood vessel density was semi-quantitatively measured using an angiogenesis scoring system, in that exponential numbers 1 to 32 were used to indicate number of blood vessels present at the treatment sites on the CAM. Number 32 represented the highest density and 0 represented no angiogenesis. The percent of inhibition at each dosing site was calculated using the score recorded for that site divided by the mean score obtained from the appropriate control samples for each individual experiment. The percent of inhibition for each dose of a given compound was calculated by pooling all results obtained for that dose.

[3] = system: panel of 12 human tumour cell lines; experiment: monolayer proliferation assay (modified propidium iodide assay) in a panel of 12 human tumour cell lines; assay type: cell-based; details: for Mean % T/C at 1 μM / Mean % T/C at 10 μM: mean growth across 12 cell-line panel, treated/control x 100, 4 days exposure; for Mean percentage Inhibition of cancer cell lines at 1 uM: 100 minus mean %T/C at 1 uM of Table III
Experimental: In vitro evaluation of compounds for anticancer activity in a panel of 12 human tumour cell lines in a monolayer proliferation assay was carried out at the Oncotest Testing Facility, Institute for Experimental Oncology, Oncotest GmbH, Freiburg.
The Oncotest cell lines were established from human tumor xenografts as described by Roth et al., (1999). The origin of the donor xenografts was described by Fiebig et al., (1999). Other cell lines were either obtained from the NCI (H460, SF-268, OVCAR-3, DU145, MDA-MB-231, MDA-MB-468) or purchased from DSMZ, Braunschweig, Germany (LNCAP).
All cell lines, unless otherwise specified, were grown at 37° C. in a humidified atmosphere (95% air, 5% CO2) in a ‘ready-mix’ medium containing RPMI 1640 medium, 10% fetal calf serum, and 0.1 mg/mL gentamicin (PAA, Cölbe, Germany).
A modified propidium iodide assay was used to assess the effects of the test compound(s) on the growth of human tumour cell lines (Dengler et al., (1995)).
Briefly, cells were harvested from exponential phase cultures by trypsinization, counted and plated in 96 well flat-bottomed microtitre plates at a cell density dependent on the cell line (5-10.000 viable cells/well). After 24 h recovery to allow the cells to resume exponential growth, 0.010 mL of culture medium (6 control wells per plate) or culture medium containing macbecin were added to the wells. Each concentration was plated in triplicate. Compounds were applied in two concentrations (0.001 mM and 0.01 mM). Following 4 days of continuous exposure, cell culture medium with or without test compound was replaced by 0.2 mL of an aqueous propidium iodide (PI) solution (7 mg/L). To measure the proportion of living cells, cells were permeabilized by freezing the plates. After thawing the plates, fluorescence was measured using the Cytofluor 4000 microplate reader (excitation 530 nm, emission 620 nm), giving a direct relationship to the total number of viable cells.
The mean growth inhibition across the 12 cell-line panel was expressed as treated/control×100 (% T/C).
In vitro evaluation of the test compounds for anticancer activity in a panel of human tumour cell lines in a monolayer proliferation assay was carried out as described in the general methods using a modified propidium iodide assay. This screen may be used as a model for the toxic effect of compounds in inhibiting general cell growth.

[4] = Cleavage studies in rat blood to give the parent acid 6; assay type: in vitro ADME; details: rat blood (EDTA), 0.01 mg/mL, 37° C.; for cleavage to give the parent compound 6: up to 180 minutes
Experimental: The sample was diluted to a volume of 1 mL by addition of 0.1 M aqueous KH2PO4. […] An Oasis MAX cartridge (1 cc/30 mg) was conditioned with 1 mL MeOH and 1 mL water successively. The supernatant was transferred to the conditioned cartridge at a flow rate of 1-2 mL/min. […] The extracts were transferred to autosampler vials and immediately analysed by LC/MS. […] LCMS was performed on a Bruker Daltonics Esquire 3000+ mass spectrometer equipped with an electrospray source coupled to the HPLC. […] Injection volume: 0.05 mL. HPLC was performed on a Waters Symmetry C8 3.5 micron column, 50 mm×2.1 mm, running a mobile phase of: mobile phase A: 0.1% formic acid in water; mobile phase B: 0.1% Formic acid in acetonitrile; flow rate: 1 mL/minute. […] Fragmentation of this molecular species results in a spectrum with intense ions at m/z 271 and 412. The daughter ion at m/z 412 can be ideally selected for quantification.

[5] = system: mouse colon adenocarcinoma cells; details: subtoxic dose; cited from earlier work
[6] = system: Lewis lung adenocarcinoma; details: rats; intraperitoneal and per os administration at subtoxic doses; cited from earlier work

Compound	Mean % T/C at 1 μM [3] [% T/C]	Mean % T/C at 10 μM [3] [% T/C]	inhibition of cell growth at 1 μM (in words) [3]	also measured
CC1CC(C)CC(C)C(O)C(C#N)=CC=CCC(C2CCCC2C(=O)OCCc2ccccn2)OC(=O)CC(O)C(C)C1 (stereo not drawn) [borrelidin-(2-pyridyl)-ethyl ester]	–	–	–	selectivity index for capillary formation inhibitory activity versus cell proliferation [1]: 7.5 fold
C[C@@H]1C[C@H](C)C[C@H](C)[C@@H](O)CC(=O)O[C@@H](C2CC[C@H]2C(=O)O)C/C=C/C=C(/C#N)[C@H](O)[C@@H](C)C1 (stereo partly drawn) [Compound 6, 17-des(cyclopentane-2-carboxylic acid)-17-(cyclobutane-2-carboxylic acid)borrelidin]	33	8	–	Mean percentage inhibition of CAM vasculature at 25 ng/CAM [2]: 51%; Ratio of inhibition of CAM vasculature at 25 ng/CAM to in vitro cancer cell inhibition at 1 uM [2]: 0.76; Mean blood vessel density score [2]: 8.2; inhibition at 1 µM ([3]; Homo sapiens, read-out: Mean percentage Inhibition of cancer cell lines at 1 uM): 67%
17-des(cyclopentane-2-carboxylic acid)-17-(cyclobutane-2-carboxylic acid)borrelidin (4-(2-hydroxyethyl))morpholine ester [Compound 7]	36	8	–	Mean percentage inhibition of CAM vasculature at 25 ng/CAM [2]: 54%; Ratio of inhibition of CAM vasculature at 25 ng/CAM to in vitro cancer cell inhibition at 1 uM [2]: 0.84; Mean blood vessel density score [2]: 7.8; anti-angiogenic therapeutic index (ratio of anti-angiogenesis to general cell inhibition), in words [2]: improved; half-life for the cleavage to parent compound 6 [4]: ~12 min; cleavage to give the parent compound 6 [4]: rapidly cleaved; Mean percentage Inhibition of cancer cell lines at 1 uM [3]: 64%
CC1CC(C)CC(C)C(O)C(C#N)=CC=CCC(C2CCC2C(=O)NCc2ccncc2)OC(=O)CC(O)C(C)C1 (stereo not drawn) [Compound 10, 17-des(cyclopentane-2-carboxylic acid)-17-(cyclobutane-2-carboxylic acid)borrelidin (4-aminomethyl)pyridine amide]	104	57	little or no inhibition of cell growth	–
CC1CC(C)CC(C)C(O)C(C#N)=CC=CCC(C2CCC2C(=O)NCCc2cccnc2)OC(=O)CC(O)C(C)C1 (stereo not drawn) [Compound 13, 17-des(cyclopentane-2-carboxylic acid)-17-(cyclobutane-2-carboxylic acid)borrelidin (3-(2-aminoethyl))pyridine amide]	97	37	little or no inhibition of cell growth	cleavage to give the parent compound 6 [4]: did not cleave
C[C@@H]1C[C@H](C)C[C@H](C)[C@@H](O)CC(=O)O[C@H]([C@@H]2CCC[C@H]2C(=O)NCCN2CCOCC2)C/C=C/C=C(/C#N)[C@H](O)[C@@H](C)C1 [borrelidin-morpholinoethyl amide]	–	–	–	selectivity index for capillary formation inhibitory activity versus cell proliferation [1]: 6 fold
17-des(cyclopentane-2-carboxylic acid)-17-(cyclobutane-2-carboxylic acid)borrelidin (2-(2-hydroxyethyl)pyridine ester [Compound 8]	40	6	–	–
borrelidin-amide	–	–	–	selectivity index for capillary formation inhibitory activity versus cell proliferation [1]: 37 fold
C[C@@H]1C[C@H](C)C[C@H](C)[C@@H](O)CC(=O)O[C@H]([C@@H]2CCC[C@H]2C(=O)OCCN2CCOCC2)C/C=C/C=C(/C#N)[C@H](O)[C@@H](C)C1 [borrelidin-morpholinoethyl ester]	–	–	–	selectivity index for capillary formation inhibitory activity versus cell proliferation [1]: 60 fold
CC1CC(C)CC(C)C(O)C(C#N)=CC=CCC(C2CCC2C(N)=O)OC(=O)CC(O)C(C)C1 (stereo not drawn) [Compound 14, 17-des(cyclopentane-2-carboxylic acid)-17-(cyclobutane-2-carboxylic acid)borrelidin amide]	92	26	little or no inhibition of cell growth	–
CC1CC(C)CC(C)C(O)CC(=O)OC(C2CCCC2C(=O)NCc2cccnc2)C(C#N)=CC=CCC(O)C(C)C1 (stereo not drawn) [borrelidin-(3-picolylamide) derivative, borrelidin-(3-picolylamide)]	–	–	–	metastasis-forming ability of mouse colon adenocarcinoma cells transplanted into mouse spleen [5]: considerably decreased; increase of micrometastases [6]: inhibit very considerably
CC1CC(C)CC(C)C(O)C(C#N)=CC=CCC(C2CCC2C(=O)NCc2ccccn2)OC(=O)CC(O)C(C)C1 (stereo not drawn) [Compound 12, 17-des(cyclopentane-2-carboxylic acid)-17-(cyclobutane-2-carboxylic acid)borrelidin (2-aminomethyl)pyridine amide]	87	15	little or no inhibition of cell growth	–
CC1CC(C)CC(C)C(O)C(C#N)=CC=CCC(C2CCC2C(=O)NCc2cccnc2)OC(=O)CC(O)C(C)C1 (stereo not drawn) [Compound 11, 17-des(cyclopentane-2-carboxylic acid)-17-(cyclobutane-2-carboxylic acid)borrelidin (3-aminomethyl)pyridine amide]	97	20	little or no inhibition of cell growth	–
CC1CC(C)CC(C)C(O)C(C#N)=CC=CCC(C2CCC2C(=O)NCCN2CCOCC2)OC(=O)CC(O)C(C)C1 (stereo not drawn) [Compound 9, 17-des(cyclopentane-2-carboxylic acid)-17-(cyclobutane-2-carboxylic acid)borrelidin (4-(2-aminoethyl))morpholine amide]	101	43	little or no inhibition of cell growth	Mean percentage inhibition of CAM vasculature at 25 ng/CAM [2]: 60%; Ratio of inhibition of CAM vasculature at 25 ng/CAM to in vitro cancer cell inhibition at 1 uM [2]: >60; Mean blood vessel density score [2]: 6.8; anti-angiogenic therapeutic index (ratio of anti-angiogenesis to general cell inhibition), in words [2]: especially good; cleavage to give the parent compound 6 [4]: did not cleave; Mean percentage Inhibition of cancer cell lines at 1 uM [3]: 0%
